According to patent US20210121527A1, “METHODS OF TREATING MINIMAL RESIDUAL CANCER” (ICAHN SCHOOL OF MEDICINE AT MOUNT SINAI, priority 2018, published 2021):

How the values were obtained:
ZR75.1 HER2^+ cells = assay: 3D Matrigel culture of ZR75.1-H2B-Dendra2 cells at low or high density, live cells; type: cell-based, human; settings: 2 μM, day 2 to day 8, 3D Matrigel
Experimental: Reagents, cell culture, and treatments: EGF was obtained from PeproTech (Rocky Hill, N.J.) and used at 100 ng/ml. Thapsigargin was from Sigma (St. Louis, Mo.) and used at 2 nM. The ZR75.1-H2B-Dendra2 cell line was generated by stable transfection of the H2B-Dendra2 plasmid (Gurskaya et al., “Engineering of a Monomeric Green-to-Red Photoactivatable Fluorescent Protein Induced by Blue Light,” Nat. Biotechnol. 24:461-465 (2006), which is hereby incorporated by reference in its entirety). For 3D cultures, MCF10A-HER2, SKBR3, and ZR75.1-H2B-Dendra2 cells were plated in growth factor-reduced Matrigel (Corning, Corning, N.Y.) and grown as described previously (Avivar-Valderas et al., “Regulation of Autophagy during ECM Detachment is Linked to a Selective Inhibition of mTORC1 by PERK,” Oncogene 32(41):4932-40 (2013), which is hereby incorporated by reference in its entirety). When referring to “low density,” 3,500 cells/8-well were seeded, and for “high density” 20,000 cells/8-well. Treatments with vehicle (DMSO) or LY4 (2 μM) were replaced every 24 hours for 2D and every 48 hours for 3D cultures.

HER2^+ tumors = assay: Growth of overt tumors in MMTV-HER2 females; type: in vivo, mouse
Experimental: Mice, tumor growth, and tissue processing: The FVB/N-Tg (MMTVneu) mouse strain was obtained from Jackson Laboratories (Sacramento, Calif.). […] Before being used in any experiment, females underwent one round of pregnancy and at least two weeks of no lactation after weaning. Females between 24-32 weeks of age were injected intraperitoneally with vehicle (90% corn oil, 10% ethanol) or LY4 (50 mpk) daily, for two weeks. For the combination treatment, females 24-32 weeks of age were treated daily by oral gavage with Abemaciclib (50 mpk) for 4 weeks before starting the treatment described earlier with LY4. Tumor volumes were measured using the formula (Dxd^2)/2, where D is the longest and d is the shortest diameter. For CTC count, animals were anesthetized and whole blood was extracted by cardiac puncture. Mammary glands, lungs, and tumors were collected and fixed in 10% buffered formalin overnight before paraffin embedding. The bone marrow from the two lower limbs was flushed with a 26 G needle and further processed by Ficoll density gradient centrifugation. For CTC as well as for DTC detection in bone marrow, tissues were depleted of mature hematopoietic cells by anti-mouse antibody-labeled magnetic bead separation (Miltenyi Biotec, San Diego, Calif.) before fixation in formalin for 20 minutes at 4° C.
IHC and IF: IHC and IF from paraffin-embedded sections was performed as previously described (Avivar-Valderas et al., “Regulation of Autophagy during ECM Detachment is Linked to a Selective Inhibition of mTORC1 by PERK,” Oncogene 32(41):4932-40 (2013), which is hereby incorporated by reference in its entirety). Briefly, slides were dewaxed and serially rehydrated. Heat-induced antigen retrieval was performed in either citrate buffer (10 mM, pH 6), EDTA buffer (1 mM, pH 8), or Tris/EDTA (pH9). Slides were further permeabilized in 0.1% Triton™-X100, blocked and incubated with primary antibody overnight at 4° C. at 1:50-1:200 dilution. For IHC, an additional step of endogenous peroxidase and avidin/biotin quenching was performed before primary antibody incubation. […] Next, slides were incubated in secondary antibodies (Life Technologies, Norwalk, Conn.) and mounted. For IHC, sections were processed using VectaStain ABC Elite kit (Vector Laboratories, Bulingame, Calif.) and DAB Substrate kit for peroxidase labelling (Vector Laboratories) and mounted in VectaMount medium (Vector laboratories). For IF, sections were mounted in ProLong Gold Antifade aqueous medium (Thermo Fisher, Waltham, Mass.).
TUNEL in situ cell death detection: Apoptosis levels were evaluated using the In situ Cell Death Detection kit, AP (Roche, Basel, Switzerland). Paraffin sections from tumors were dewaxed, rehydrated, and permeabilized in phosphate buffered saline (PBS) 0.2% TRITON™-X100 for 8 minutes. Then, slides were washed and blocked in 20% normal goat serum for 1 hour at 37° C. The TUNEL reaction mixture was then added and let go for 1 hour at 37° C. The reaction was stopped by incubating with Buffer I(0.3 M Sodium chloride, 30 mM Sodium citrate). Next, the slides were incubated with anti-fluorescein-AP antibody for 30 minutes at 37° C. After three washes in Tris buffered saline (TBS), slides were incubated in alkaline phosphatase substrate in 0.1% TWEEN™-20 for 20 min at room temperature. Finally, the slides were mounted using aqueous mounting medium. The percentage of TUNEL positive cells was calculated using Image J software (NIH).

Compound: Cc1cc(NC(=O)[C@H](O)c2cc(F)cc(F)c2)ccc1-c1cnc(N)c(C(=O)NC(C)C)c1 [LY4, 2-amino-5-[4-[[(2R)-2-(3,5-difluorophenyl)-2-hydroxy-acetyl]amino]-2-methyl-phenyl]-N-isopropyl-pyridine-3-carboxamide]
- survival of quiescent single cells (low density) (ZR75.1 HER2^+ cells): eradicated the quiescent single ZR75.1 HER2^+ cells
- viability of cells seeded at high density (ZR75.1 HER2^+ cells): no significant effect on the viability
- tumors remaining in complete cytostasis (HER2^+ tumors; 2-week treatment, 7% in controls): 43%
- tumors showing regression (HER2^+ tumors; 2-week window treatment): 25%
- P-HER2 levels in tumors (IHC score) (HER2^+ tumors; 50 mpk, two weeks): significantly lower levels of P-HER2 than control animals
- TUNEL staining of tumor sections (DNA fragmentation) (HER2^+ tumors; 50 mpk, two weeks): significant increase in the levels of DNA fragmentation
- median final tumor volume (HER2^+ tumors; 50 mpk, two weeks): significant decrease in median final tumor volume
- proliferation in tumors (P-histone H3 IHC) (HER2^+ tumors; 50 mpk, two weeks): not different between vehicle- and LY4-treated tumors
- tumor growth rate (HER2^+ tumors; 50 mpk, two weeks): reduced growth rate
